Our source for the IC50 and Dmax values is US20240374738A1, “BIFUNCTIONAL COMPOUND CAPABLE OF DEGRADING RECEPTOR TYROSINE KINASE AND APPLICATION THEREOF” (TAIBIDI PHARMACEUTICAL TECHNOLOGY (SHIJIAZHUANG) CO., LTD., priority 2023, published 2024).

Structures are written as SMILES.

Usually IC50 stands for the midpoint of a concentration-inhibition curve. Read a low IC50 as higher potency. What is called Dmax is the largest share of the target that was removed.

Common to all, as to format: cell-based
One test deals with MKN45. Put plainly: Growth inhibition of gastric cancer cells MKN45 (CCK-8). The settings on record: Homo sapiens, MKN-45, half inhibitory concentration, 72 hours. As to the method: (§1) Inoculate gastric cancer cells (SNU5 or MKN45) into a 96 well plate at a concentration of […], with 100 μl added to each well. Incubate for 30 minutes. Observe the cell status under a microscope. Prepare compounds, weigh a certain amount of the series compounds or reference drug cabozantinib of this patent, first prepare a high concentration mother liquor with pure DMSO, and use gradient dilution method to prepare a concentration of 200 μM, 60 μM, 20 μM, 6 μM, 2 μM, 600 nM, 200 nM, 0 nM drug solution, shake to make it fully mixed. The control group was prepared with cabozantinib using the same solvent and method.
(§2) After preparation, add 1 μl of drug solution to each well of the 96 well plate, and then add 100 μl of culture medium. Repeat each dose three times. Gently shake to allow the cells and medication to come into full contact and incubate in the incubator for 72 hours. 72 hours later, remove and color with CCK-8 reagent kit. Add 20 μl of CCK-8 reagent to each well, gently shake well, and incubate in the incubator for 1 hour. After 1 hour, remove and measure the absorbance of each well using an enzyme-linked immunosorbent assay (ELISA) reader at a wavelength of 450 nm.
(§3) According to the formula: Cell growth inhibition rate=[1−(absorbance of experimental group absorbance of culture medium control group)/(absorbance of blank control group−absorbance of culture medium control group)]×100%. It can be concluded that the compound has the ability to inhibit the growth of gastric cancer cells at the current dose and time.
(§4) Draw a graph based on the gradient of concentration and use GraphPad Prism 9 software (GraphPad Software, La Jolla, CA) to calculate the maximum inhibitory concentration (IC50) at 50%.
(§5) Referring to steps 1 and 2 of this embodiment, the inhibitory effect of the compound of the present invention on the growth of cancer cells and the degradation effect of target proteins were measured, and the following results were obtained (see Table 2 below).
(§6) The growth inhibitory effects of the compound of the present invention on tumor cell lines MKN45 and SNU5 were measured. The activity is expressed as half inhibitory concentration (C50). The results are shown in Table 2 below; When the half inhibitory concentration is less than or equal to 100 nM, the compound activity is labeled as “++++”; When the half inhibitory concentration is greater than 100 nM and less than 500 nM, the compound activity is labeled as […] and less than 1000 nM, the compound activity is labeled as “++”; When the half inhibitory concentration is greater than 1000 nM and less than 3000 nM, the compound activity is marked as “+”; When the half inhibitory concentration is greater than 3000 nM, the compound activity is marked as […]

For a further test, the system named is SNU5. Put plainly: Growth inhibition of gastric cancer cells SNU5 (CCK-8). The settings on record: Homo sapiens, SNU-5, half inhibitory concentration, 72 hours. The method, then:
as §1, §2, §3, §4, §5, §6

The next test concerns the target DDR1 (Homo sapiens, UniProt Q08345). Kind of test: Degradation of DDR1 in tumor cell MKN45 (Western blot). More on the design: The degradation activity of the compounds against DDR1 in the MKN45 cell line; endogenous in cells; host or cells: MKN45. The settings on record: MKN-45, maximum degradation percentage, MKN45 cells, 24 hours. As to the method:
Western blot experiment: Take gastric cancer cells (MKN45) and inoculate them into a 6-well plate at a concentration of […], adding 2 ml to each well and incubating for 24 hours.
The next day, observe the cells under a microscope to confirm their status. Prepare compounds, weigh a certain amount of the series compounds or reference drug cabozantinib from this patent, first prepare a high concentration mother liquor with pure DMSO, and use gradient dilution method to prepare compound concentrations of 2 mM, 200 μM, 100 μM, 20 μM, 2 μM, 200 nM, and 0 nM. The final concentration of DMSO is 0.5%. Shake to thoroughly mix. Add 10 μl of solution to each well. After incubation for 24 hours, remove the cells and use a pipette to aspirate the suspended cells into a 1.5 ml centrifuge tube. Centrifuge at 5000 rpm for 10 minutes to precipitate the cells. Carefully remove the cell precipitate from the culture medium, add 1 ml of PBS and shake slightly. After repeated cleaning for 3 times, dry the residue. Add 150 μl of RIPA lysate pre mixed with 1% PMSF, blow to allow the lysate to fully contact the cells, and incubate on ice for 10 minutes. Centrifuge at 12000 rpm for 10 minutes, extract the supernatant, use the BCA protein quantification kit to determine and homogenize the sample loading.
Mix BCA-A in a 50:1 ratio Prepare working solution with B solution, dilute the sample by 5 times, then pipette 20 μl onto a 96 well ELISA plate. Add 200 μl of pre mixed BCA working solution and incubate at 37° C. for 20 minutes. Measure the A562 nm absorbance value using an ELISA reader and substitute it into the protein standard curve formula to obtain the sample concentration. After calculating the required volume for loading […] of sample, divide the sample into 1.5 ml centrifuge tubes. Add 10 μl of sample buffer to each tube and mix well. Heat in a 95° C. metal bath for 5 minutes to denature the protein.
Take 4-20% gradient pre adhesive and fix it on the adhesive rack. Add electrophoresis solution to the slot and remove the comb, Marker and protein samples were loaded, and after 30 minutes of electrophoresis at 80V, the voltage was adjusted to 120V for electrophoresis, The marker band stops electrophoresis at the forefront of the gel. Take out the adhesive block and cut it to the appropriate size, The PVDF membrane was cut and activated in methanol, and after activation, the PVDF membrane was equilibrated in a membrane transfer equilibrium solution for 1 minute. Using sponge pads The sequence of PVDF film, adhesive, and sponge pad is placed in the splint and placed in the eBlot equipment for rapid wet rotation. Remove the membrane and seal it in 5% skim milk powder dissolved in 1×TBST for 1 hour. Cut the membrane according to the molecular weight of the target protein and internal reference protein, and place it in primary antibody diluted with 1×TBST. Shake overnight at 4° C.
The next day, transfer the band to 1×TBST for 3 washes, then add a specific dilution of the secondary antibody and shake it for 1.5 hours. Transfer the band again to 1×TBST for 3 washes, prepare ECL color solution, place the membrane in the imaging system, cover the surface with ECL color solution, and take photos of the membrane using the imaging system.
Using the SHST analysis system to analyze the results, measure the grayscale values of each band of the target protein and internal reference protein. Normalize the grayscale values of the target protein/corresponding lane GAPDH grayscale values, and perform quantitative analysis according to the protein amount=experimental group grayscale value/blank control group grayscale value.
The activity of the compound of the present invention in degrading DDR in tumor cell line MKN45 was measured. […]
(Immunoblotting shows a protein as a band on a membrane.)

Sequence of DDR1 (Q08345 19-913): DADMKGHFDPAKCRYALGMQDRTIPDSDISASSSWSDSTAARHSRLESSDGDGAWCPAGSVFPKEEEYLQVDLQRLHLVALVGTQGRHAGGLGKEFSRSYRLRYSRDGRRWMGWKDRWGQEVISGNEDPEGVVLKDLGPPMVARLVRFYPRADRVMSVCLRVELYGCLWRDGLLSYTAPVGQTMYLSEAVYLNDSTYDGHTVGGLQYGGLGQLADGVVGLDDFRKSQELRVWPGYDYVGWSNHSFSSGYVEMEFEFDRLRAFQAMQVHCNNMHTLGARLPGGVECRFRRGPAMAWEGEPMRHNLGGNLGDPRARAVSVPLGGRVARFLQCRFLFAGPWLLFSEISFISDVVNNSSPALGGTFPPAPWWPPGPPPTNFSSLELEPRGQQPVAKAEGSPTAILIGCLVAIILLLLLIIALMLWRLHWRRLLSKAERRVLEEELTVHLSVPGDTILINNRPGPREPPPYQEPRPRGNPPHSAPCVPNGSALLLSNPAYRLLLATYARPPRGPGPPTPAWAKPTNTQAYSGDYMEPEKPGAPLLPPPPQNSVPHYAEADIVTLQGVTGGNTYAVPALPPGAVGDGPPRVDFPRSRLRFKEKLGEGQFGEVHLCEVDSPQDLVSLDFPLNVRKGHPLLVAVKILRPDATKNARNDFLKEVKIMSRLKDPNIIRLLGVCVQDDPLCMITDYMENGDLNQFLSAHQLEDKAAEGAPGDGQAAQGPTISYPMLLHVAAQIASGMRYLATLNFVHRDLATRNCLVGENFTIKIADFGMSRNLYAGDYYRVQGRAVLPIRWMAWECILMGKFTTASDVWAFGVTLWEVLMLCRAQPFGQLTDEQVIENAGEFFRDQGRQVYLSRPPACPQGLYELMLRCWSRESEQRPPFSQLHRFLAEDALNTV

For the compound `COc1cc2c(Oc3ccc(NC(=O)C4(C(=O)Nc5ccc(F)cc5)CC4)cc3)ccnc2cc1COCCN1CCC(OCCC(=O)N[C@H](C(=O)N2C[C@H](O)C[C@H]2C(=O)NCc2ccc(-c3scnc3C)cc2)C(C)(C)C)CC1` [TPD5305], the IC50 in the test with MKN45 and in the test on SNU5 was 100 to 500 nM throughout. Also, the Dmax on DDR1 was 65 to 75%.
In the case of `COc1cc2c(Oc3ccc(NC(=O)C4(C(=O)Nc5ccc(F)cc5)CC4)cc3)ccnc2cc1COCCN1CCC(CCNc2cccc3c2C(=O)N(C2CCC(=O)NC2=O)C3=O)CC1` (stereo not drawn) [TPD5313], the IC50 in the test on MKN45 and with SNU5 was 100 to 500 nM throughout. The compound also gave a Dmax on DDR1 of 65 to 75%.
Turning to `COc1cc2c(Oc3ccc(NC(=O)C4(C(=O)Nc5ccc(F)cc5)CC4)cc3)ccnc2cc1COCCN1CCC(OCCCNc2ccc3c(c2)C(=O)N(C2CCC(=O)NC2=O)C3=O)CC1` (stereo not drawn) [TPD5315], the IC50 with MKN45 and with SNU5 was 100 to 500 nM in each case. This compound also yielded a Dmax at DDR1 of more than 85%.
With `COc1cc2c(Oc3ccc(NC(=O)C4(C(=O)Nc5ccc(F)cc5)CC4)cc3)ccnc2cc1COCCN1CCN(CCNc2cccc3c2C(=O)N(C2CCC(=O)NC2=O)C3=O)CC1` (stereo not drawn) [TPD5316], the IC50 with MKN45 and in the test with SNU5 was 500 to 1000 nM throughout. The Dmax at DDR1 was 75 to 85%.
As for `COc1cc2c(Oc3ccc(NC(=O)C4(C(=O)Nc5ccc(F)cc5)CC4)cc3)ccnc2cc1COCCN1CCN(C(=O)CNc2cccc3c2C(=O)N(C2CCC(=O)NC2=O)C3=O)CC1` (stereo not drawn) [TPD5317], the IC50 in the test on MKN45 and in the test on SNU5 was 100 to 500 nM in each case. At DDR1, this compound registered a Dmax of 65 to 75%.
As for `COc1cc2c(Oc3ccc(NC(=O)C4(C(=O)Nc5ccc(F)cc5)CC4)cc3)ccnc2cc1N1CCC(CN2CCC(C(=O)N[C@H](C(=O)N3C[C@H](O)C[C@H]3C(=O)NCc3ccc(-c4scnc4C)cc3)C(C)(C)C)CC2)CC1` [TPD5402b], the IC50 in the test with MKN45 and in the test with SNU5 was not above 100 nM each time. Also, on DDR1, the Dmax was 65 to 75%.
Turning to `COc1cc2c(Oc3ccc(NC(=O)C4(C(=O)Nc5ccc(F)cc5)CC4)cc3)ccnc2cc1N1CCC(CN2CCC(OCC(=O)N[C@H](C(=O)N3C[C@H](O)C[C@H]3C(=O)NCc3ccc(-c4scnc4C)cc3)C(C)(C)C)CC2)CC1` [TPD5407], the IC50 is 100 to 500 nM with MKN45 and 500 to 1000 nM in the test on SNU5. The Dmax on DDR1 lay within 75 to 85%.
`COc1cc2c(Oc3ccc(NC(=O)C4(C(=O)Nc5ccc(F)cc5)CC4)cc3)ccnc2cc1N1CCC(C(=O)N[C@H](C(=O)N2C[C@H](O)C[C@H]2C(=O)NCc2ccc(-c3scnc3C)cc2)C(C)(C)C)CC1` [TPD5409]: the IC50 with MKN45 and in the test on SNU5 was 100 to 500 nM each time. The Dmax at DDR1 is 65 to 75%.
Take `COc1cc2c(Oc3ccc(NC(=O)C4(C(=O)Nc5ccc(F)cc5)CC4)cc3)ccnc2cc1N1CCC(CC(=O)N[C@H](C(=O)N2C[C@H](O)C[C@H]2C(=O)NCc2ccc(-c3scnc3C)cc2)C(C)(C)C)CC1` [TPD5410]: the IC50 with MKN45 and with SNU5 was not above 100 nM throughout. The compound also yielded a Dmax at DDR1 of 65 to 75%.
For the compound `COc1cc2c(Oc3ccc(NC(=O)C4(C(=O)Nc5ccc(F)cc5)CC4)cc3)ccnc2cc1N1CCC(OCC(=O)N[C@H](C(=O)N2C[C@H](O)C[C@H]2C(=O)NCc2ccc(-c3scnc3C)cc2)C(C)(C)C)CC1` [TPD5411], the IC50 with MKN45 and with SNU5 was 100 to 500 nM throughout. For the same compound, at DDR1, the Dmax fell in the range of 75 to 85%.
For the compound `COc1cc2c(Oc3ccc(NC(=O)C4(C(=O)Nc5ccc(F)cc5)CC4)cc3)ccnc2cc1N1CCC(OCCC(=O)N[C@H](C(=O)N2C[C@H](O)C[C@H]2C(=O)NCc2ccc(-c3scnc3C)cc2)C(C)(C)C)CC1` [TPD5412], the IC50 with MKN45 and in the test with SNU5 was 100 to 500 nM throughout. Further, the Dmax on DDR1 is 65 to 75%.
As for `COc1cc2c(Oc3ccc(NC(=O)C4(C(=O)Nc5ccc(F)cc5)CC4)cc3)ccnc2cc1NCCC(=O)N[C@H](C(=O)N1C[C@H](O)C[C@H]1C(=O)NCc1ccc(-c2scnc2C)cc1)C(C)(C)C` [TPD5415], the IC50 in the test with MKN45 and in the test on SNU5 was 100 to 500 nM each time. At DDR1, this compound yielded a Dmax of 65 to 75%.
Consider `COc1cc2c(Oc3ccc(NC(=O)C4(C(=O)Nc5ccc(F)cc5)CC4)cc3)ccnc2cc1NCC(=O)N[C@H](C(=O)N1C[C@H](O)C[C@H]1C(=O)NCc1ccc(-c2scnc2C)cc1)C(C)(C)C` [TPD5417], for which the IC50 is 500 to 1000 nM in the test on MKN45 and 1000 to 3000 nM with SNU5. In addition, the Dmax at DDR1 is 65 to 75%.
Regarding `COc1cc2c(Oc3ccc(NC(=O)C4(C(=O)Nc5ccc(F)cc5)CC4)cc3)ccnc2cc1N1CCC(N2CCC(C(=O)N[C@H](C(=O)N3C[C@H](O)C[C@H]3C(=O)NCc3ccc(-c4scnc4C)cc3)C(C)(C)C)CC2)CC1` [TPD5420], the IC50 with MKN45 was in the range of 1000 to 3000 nM; with SNU5, 500 to 1000 nM. At DDR1, the Dmax lay in the range of 65 to 75%.
In the same order, the values of `COc1cc2c(Oc3ccc(NC(=O)C4(C(=O)Nc5ccc(F)cc5)CC4)cc3)ccnc2cc1N1CCC(CN2CCC(C(=O)N3C[C@H](O)C[C@H]3C(=O)NCc3ccc(-c4scnc4C)cc3)CC2)CC1` [TPD5421] are 100 to 500 nM, 100 to 500 nM and 75 to 85%.
In the case of `COc1cc2c(Oc3ccc(NC(=O)C4(C(=O)Nc5ccc(F)cc5)CC4)cc3)ccnc2cc1N1CCC(NC(=O)C2(C(=O)N[C@H](C(=O)N3C[C@H](O)C[C@H]3C(=O)NCc3ccc(-c4scnc4C)cc3)C(C)(C)C)CC2)CC1` [TPD5424], the IC50 lay within 1000 to 3000 nM in the test with MKN45 and 500 to 1000 nM in the test on SNU5. Further, at DDR1, the Dmax is 65 to 75%.
In the same order, the values of `COc1cc2c(Oc3ccc(NC(=O)C4(C(=O)Nc5ccc(F)cc5)CC4)cc3)ccnc2cc1N1CCC(CN2CC(C(=O)N3C[C@H](O)C[C@H]3C(=O)NCc3ccc(-c4scnc4C)cc3)C2)CC1` [TPD5430] are 1000 to 3000 nM, 1000 to 3000 nM and 65 to 75%.
